Data set [1] has as its system Staphylococcus aureus (S. aureus F-1924). The experiment in a line: MIC against Staphylococcus aureus, agar dilution. In kind it is cell-based. Conditions: Mueller Hinton agar, 37° C., 20 hours, read-out: MIC (lowest concentration which inhibited visible growth of the cells). The procedure:
According to the standard method of Japan Chemotherapy Society [CHEMOTHERAPY, Vol. 29, No. 1, p. 76-79 (1981)], Staphylococcus aureus (S. aureus F-1924) was cultivated in Mueller Hinton broth [manufactured by Difco] at 37° C. for 20 hours and the cell density was adjusted to 10^6 cells/plate (10^8 cells/ml). A loopful of the bacterial suspension was inoculated on Mueller Hinton agar medium [manufactured by Difco] and incubated at 37° C. for 20 hours. Whether or not the growth of cells occurred was observed and MIC (μg/ml) was defined as the lowest concentration which inhibited visible growth of the cells.

Data set [2] has as its system ddy male mice. As to the kind of experiment: Micronucleus test. It counts as in vivo. Conditions: intraperitoneally at 500 mg/Kg. The method, then: According to the description in Dokusei Shiken Koza 12 (Chijinshokan, 1991), pages 147-153, micronucleus test was carried out using ddy male mice. As a result, the compounds (a), (c), (d) and (g) were negative when administered intraperitoneally at 500 mg/Kg.

The test system of data set [3] is ddy male mice. The experiment in a line: Acute toxicity. In kind it is in vivo. Conditions: three ddy male mice; intraperitoneally 500 mg/Kg. The procedure:
Three ddy male mice were intraperitoneally administered with 500 mg/Kg of (a), (b), (d) or (g).

Molecules are shown by their SMILES. Values after ≈ are worked out from the molar mass of the structure shown.

On to `Cc1ccc(-c2ccc3c(=O)c(C(=O)O)cn(C4CC4)c3c2C)cn1` [c, 1-Cyclopropyl-7-(6-methyl-3-pyridyl)-8-methyl-4-oxo-1,4-dihydro-3-quinolinecarboxylic acid], for which the MIC in data set [1] was 0.39 µg/mL (≈ 1.17 µM). In addition, the Micronucleus test result in data set [2] was “negative”.
As to `Cc1cc(-c2ccc3c(=O)c(C(=O)O)cn(C4CC4)c3c2C)cnc1N` [g, 7-(6-Amino-5-methyl-3-pyridyl)-1-cyclopropyl-8-methyl-4-oxo-1,4-dihydro-3-quinolinecarboxylic acid], the “Acute toxicity (death of animals)” value in data set [3] is “In no case, the animals were dead”. For the same molecule, the MIC in data set [1] worked out at 0.1 µg/mL (≈ 0.286 µM). The Micronucleus test result in data set [2] is on record as “negative”.
`Cc1cc(-c2ccc3c(=O)c(C(=O)O)cn(C4CC4)c3c2C)cc(CO)n1` [b, 1-Cyclopropyl-7-(2-hydroxymethyl-6-methyl-4-pyridyl)-8-methyl-4-oxo-1,4-dihydro-3-quinolinecarboxylic acid]: the “Acute toxicity (death of animals)” value in data set [3] was “In no case, the animals were dead”. Besides, the MIC in data set [1] was 0.39 µg/mL (≈ 1.07 µM).
Consider `COc1c(-c2cnc(N)c(C)c2)ccc2c(=O)c(C(=O)O)cn(C3CC3)c12` [f, 7-(6-Amino-5-methyl-3-pyridyl)-1-cyclopropyl-8-methoxy-4-oxo-1,4-dihydro-3-quinolinecarboxylic acid], for which the MIC in data set [1] was 0.39 µg/mL (≈ 1.07 µM).
As to `Cc1cc(-c2cc(N)c3c(=O)c(C(=O)O)cn(C4CC4)c3c2C)cnc1C` [j, 5-Amino-1-cyclopropyl-7-(5,6-dimethyl-3-pyridyl)-8-methyl-4-oxo-1,4-dihydro-3-quinolinecarboxylic acid], the MIC in data set [1] is 0.39 µg/mL (≈ 1.07 µM).
For the molecule `CC1CCc2c(N3CCC(O)CC3)c(F)cc3c(=O)c(C(=O)O)cn1c23` (racemic) [k, (±)-9-Fluoro-6,7-dihydro-8-(4-hydroxy-1-piperidinyl)-5-methyl-1-oxo-1-1H,5H-benzo[i,j]quinolizine-2-carboxylic acid, reference compound], in data set [1], the MIC is 1.56 µg/mL (≈ 4.33 µM).
Same read-out and setting: the same measure for `Cc1c(-c2ccc(N)nc2)ccc2c(=O)c(C(=O)O)cn(C3CC3)c12` [h, 7-(6-Amino-3-pyridyl)-1-cyclopropyl-8-methyl-4-oxo-1,4-dihydro-3-quinolinecarboxylic acid]: 0.1 µg/mL (≈ 0.298 µM).
`CNc1ncc(-c2ccc3c(=O)c(C(=O)O)cn(C4CC4)c3c2C)cc1C` [d, 1-Cyclopropyl-8-methyl-7-[5-methyl-6-(methylamino)-3-pyridyl]-4-oxo-1,4-dihydro-3-quinolinecarboxylic acid]: the “Acute toxicity (death of animals)” value in data set [3] is “In no case, the animals were dead”. In addition, the MIC in data set [1] came out at 0.2 µg/mL (≈ 0.55 µM). The Micronucleus test result in data set [2] was “negative”.
In the case of `Cc1cc(-c2ccc3c(=O)c(C(=O)O)cn(C4CC4)c3c2C)cc(C)n1` [a, 1-Cyclopropyl-7-(2,6-dimethyl-4-pyridyl)-8-methyl-4-oxo-1,4-dihydro-3-quinolinecarboxylic acid], in data set [3], the “Acute toxicity (death of animals)” value is given as “In no case, the animals were dead”. Also, the MIC in data set [1] came to 0.2 µg/mL (≈ 0.574 µM). In addition, the Micronucleus test result in data set [2] was “negative”.
Turning to `Cc1cc(-c2ccc3c(=O)c(C(=O)O)cn(C4CC4)c3c2OC(F)F)cnc1N` [e, 7-(6-Amino-5-methyl-3-pyridyl)-1-cyclopropyl-8-(difluoromethoxy)-4-oxo-1,4-dihydro-3-quinolinecarboxylic acid], the MIC in data set [1] turned out to be 0.78 µg/mL (≈ 1.94 µM).
With `Cc1cc(-c2cc(C)c3c(=O)c(C(=O)O)cn(C4CC4)c3c2C)cc(C)n1` [i, 1-Cyclopropyl-7-(2,6-dimethyl-4-pyridyl)-5,8-dimethyl-4-oxo-1,4-dihydro-3-quinolinecarboxylic acid], the MIC in data set [1] is 0.2 µg/mL (≈ 0.552 µM).
